According to patent US10933059B2, “Combination, application thereof and treatment method” (KANGPU BIOPHARMACEUTICALS, LTD., priority 2016, dated 2021):
Where two headings read alike, the source gives them in different places.

System: Vcap cells
Experiment: CTG cell proliferation assay on Vcap cells (compounds alone or in combination, 5 days)
Type: cell-based
Experimental: In vitro test of the inhibition effect of the compound in combination with androgen receptor pathway modulators on the prostate cancer cell proliferation.
Inhibition effect of the compounds such as B101, B102, B103, B104, B105, B106, C111 and the like, androgen receptor pathway modulators, hormone compounds, alone or in combination with each other on the prostate cancer cell proliferation were tested on Vcap cells (androgen receptor (+) prostate cancer cells) (ATCC, catalogue number CRL-2876). The specific experimental operation was as follows: 5×10^3 Vcap cells per well were inoculated into 96-well plates with transparent bottom and white wall (Corning, catalogue number CLS3903) containing the specific medium, and were cultured in a 37° C., 5% CO2 incubator for 24 hours. The tested compounds and the androgen receptor pathway modulators were prepared to a 150 mM stocking solution with DMSO (Sigma, catalogue number 276855), diluted with culture medium to the desired concentrations (the final concentration of DMSO is 0.2%), and then added to each well, 2 wells/concentration, followed by being incubated in a 37° C., 5% CO2 incubator for 5 days. The tested compounds were used alone or in combination with other androgen receptor pathway modulators and/or hormone compounds respectively. […] After that, 100 μl of CellTiter-Glo® cell viability assay reagent (Promega, catalogue number G7570) was added to each well and mixed well on a vibrator for 10 minutes to induce cell lysis. The 96-well plate was placed at room temperature for 10 minutes, so as to stabilize its luminescence signal. A white bottom membrane was pasted on the bottom of the plate and the plate was tested using EnSpire.

[1] = Homo sapiens, VCaP, 120 h, tested compound alone, 0.1 μM, read-out: Survival rate of Vcap cells
[2] = Homo sapiens, VCaP, 120 h, tested compound alone, 1 μM, read-out: Survival rate of Vcap cells
[3] = Homo sapiens, VCaP, 120 h, tested compound alone, 10 μM, read-out: Survival rate of Vcap cells
[4] = tested compound 0.1 μM in combination with 1 μM ARN-509
[5] = tested compound 0.1 μM in combination with 1 μM Enzalutamide
[6] = tested compound 1 μM in combination with 1 μM ARN-509
[7] = tested compound 1 μM in combination with 1 μM Enzalutamide
[8] = tested compound 10 μM in combination with 1 μM ARN-509
[9] = tested compound 10 μM in combination with 1 μM Enzalutamide
[10] = Homo sapiens, VCaP, 120 h, read-out: Survival rate of Vcap cells, tested compound alone, 0.1 μM
[11] = Homo sapiens, VCaP, 120 h, read-out: Survival rate of Vcap cells, tested compound alone, 10 μM
[12] = tested compound 0.1 μM in combination with 1 μM B101
[13] = tested compound 0.1 μM in combination with 1 μM B105
[14] = tested compound 1 μM in combination with 1 μM B101
[15] = tested compound 1 μM in combination with 1 μM B105
[16] = tested compound 10 μM in combination with 1 μM B101
[17] = tested compound 10 μM in combination with 1 μM B105

Row | SMILES | viability at 0.1 µM [1] | viability at 1 µM [2] | viability at 10 µM [3] | Survival rate of Vcap cells [4] | Survival rate of Vcap cells [5] | Survival rate of Vcap cells [6] | Survival rate of Vcap cells [7] | Survival rate of Vcap cells [8] | Survival rate of Vcap cells [9] | Survival rate of Vcap cells (tested compound alone, 1 μM) | Survival rate of Vcap cells [12] | Survival rate of Vcap cells [13] | Survival rate of Vcap cells [14] | Survival rate of Vcap cells [15] | Survival rate of Vcap cells [16] | Survival rate of Vcap cells [17] | other results
1 | Nc1cc(F)cc2c1CN([C@@H]1CCC(=O)NC1=O)C2=O [B103] | 86.3% | 84.1% | 85.5% | 48.8% | 50.2% | 41.7% | 42.7% | 38.3% | 42.9% | 84.1% |  |  |  |  |  |  | 
2 | C[C@](O)(COc1ccc(C#N)cc1)C(=O)Nc1ccc(C#N)c(C(F)(F)F)c1 [MK-2866, reference compound] |  |  |  |  |  |  |  |  |  |  | 61.4% | 62.6% | 63.6% | 59.7% | 52.7% | 52.5% | viability at 0.1 µM [10]: 76.5%; viability at 1 µM (Homo sapiens, VCaP, 120 h, read-out: Survival rate of Vcap cells, tested compound alone, 1 μM): 77.4%; viability at 10 µM [11]: 69.4%
3 | C[C@]12CC[C@H](O)C[C@@H]1CC[C@@H]1[C@@H]2CC[C@]2(C)C(=O)CC[C@@H]12 [Epiandrosterone, reference compound] |  |  |  |  |  |  |  |  |  |  |  | 71.5% | 71.1% | 64.6% | 79.8% | 77.4% | 
4 | CC(=O)O[C@]1(C(C)=O)CC[C@H]2[C@@H]3C=C(Cl)C4=CC(=O)[C@@H]5C[C@@H]5[C@]4(C)[C@H]3CC[C@@]21C [Cyproterone Acetate, reference compound] | 97.2% | 96% | 83.5% |  |  |  |  |  |  |  | 85.0% | 82.1% | 85.0% | 84.0% | 78.9% | 79.4% | 
5 | CC(=O)Nc1ccc(OC[C@](C)(O)C(=O)Nc2ccc([N+](=O)[O-])c(C(F)(F)F)c2)cc1 [Andarine, reference compound] |  |  |  |  |  |  |  |  |  | 82.7% | 69.8% | 71.1% | 65.5% | 64.6% | 53.8% | 53.5% | Survival rate of Vcap cells (tested compound alone, 0.1 μM): 85.6%; Survival rate of Vcap cells (tested compound alone, 10 μM): 69.4%
6 | CC(=O)O[C@]1(C(C)=O)CC[C@H]2[C@@H]3C=C(C)C4=CC(=O)CC[C@]4(C)[C@H]3CC[C@@]21C [Megestrol Acetate, reference compound] | 99.7% | 103% | 88.9% |  |  |  |  |  |  |  | 85.2% | 82.1% | 83.1% | 83.3% | 75.2% | 76.6% | 
7 | [2H][C@@]1(N2Cc3c(N)cc(F)cc3C2=O)CCC(=O)NC1=O [B106] | 86.8% | 79% | 74.1% | 50.6% | 50.6% | 41.1% | 40.5% | 39.9% | 38.2% | 79.0% |  |  |  |  |  |  | 
8 | CC(O)c1cc(C(=O)N[C@@H](C)Cn2ccc(-c3ccc(C#N)c(Cl)c3)n2)[nH]n1 (stereo partly drawn) [ODM-201, reference compound] |  | 69% |  |  |  |  |  |  |  | 69.0% |  |  |  |  |  |  | viability at 0.1 µM [10]: 90.7%; viability at 10 µM [11]: 75.4%
9 | [2H]C1(N2Cc3c(N)cc(F)cc3C2=O)CCC(=O)NC1=O (stereo not drawn) [B104] | 84.4% | 77.4% | 74% | 45.7% | 47.1% | 40.5% | 41.2% | 37.8% | 38.8% | 77.4% |  |  |  |  |  |  | 
10 | CC(O)(CS(=O)(=O)c1ccc(F)cc1)C(=O)Nc1ccc(C#N)c(C(F)(F)F)c1 (stereo not drawn) [bicalutamide, reference compound] |  | 94% | 92% |  |  |  |  |  |  |  | 70.5% | 75.9% | 66.5% | 67.3% | 64.0% | 63.4% | viability at 0.1 µM [10]: 99.2%
11 | CC(=O)S[C@@H]1CC2=CC(=O)CC[C@]2(C)[C@H]2CC[C@@]3(C)[C@@H](CC[C@@]34CCC(=O)O4)[C@H]12 [Spironolactone, reference compound] | 100% | 91.3% | 72.5% |  |  |  |  |  |  |  | 85.3% | 87.2% | 77.3% | 79.6% | 65.9% | 64.5% | 
12 | CC(C)C(=O)Nc1ccc([N+](=O)[O-])c(C(F)(F)F)c1 [Flutamide, reference compound] | 105% | 96.7% | 73.1% |  |  |  |  |  |  |  | 80.4% | 76.5% | 65.1% | 64.6% | 42.8% | 43.8% | 
13 | Nc1cc(F)cc2c1CN([C@H]1CCC(=O)NC1=O)C2=O [B102] | 84.7% | 80.9% | 78.4% | 47.2% | 46.3% | 40.2% | 41.1% | 38.3% | 40.1% | 80.9% |  |  |  |  |  |  | 
14 | C[C@]12C=CC(=O)C=C1CC[C@@H]1[C@@H]2C(=O)C[C@@]2(C)[C@H]1CC[C@]2(O)C(=O)CO [Prednisone, reference compound] | 99.1% | 99.7% | 99.4% |  |  |  |  |  |  |  | 84.0% | 87.5% | 76.9% | 80.6% | 75.3% | 79.7% | 
15 | [2H][C@]1(N2Cc3c(OCc4ccc(CN5CCOCC5)cc4F)cccc3C2=O)CCC(=O)NC1=O [C111] | 81.5% | 81% | 77% | 37.0% | 36.3% | 35.6% | 35.8% | 37.3% | 36.6% |  |  |  |  |  |  |  | inhibition at 0.05 µM (Homo sapiens, VCaP, 120 h, B105 or C111 0.05 μM alone, 5 days, read-out: Vcap cell proliferation inhibition rate): 19.6%; inhibition at 0.14 µM (Homo sapiens, VCaP, 120 h, B105 or C111 0.14 μM alone, 5 days, read-out: Vcap cell proliferation inhibition rate): 20.9%; inhibition at 1.23 µM (Homo sapiens, VCaP, 120 h, B105 or C111 1.23 μM alone, 5 days, read-out: Vcap cell proliferation inhibition rate): 23.4%; inhibition at 3.7 µM (Homo sapiens, VCaP, 120 h, B105 or C111 3.70 μM alone, 5 days, read-out: Vcap cell proliferation inhibition rate): 25.4%; inhibition at 11.11 µM (Homo sapiens, VCaP, 120 h, B105 or C111 11.11 μM alone, 5 days, read-out: Vcap cell proliferation inhibition rate): 28.8%; inhibition at 33.33 µM (Homo sapiens, VCaP, 120 h, B105 or C111 33.33 μM alone, 5 days, read-out: Vcap cell proliferation inhibition rate): 29.1%; inhibition at 100 µM (Homo sapiens, VCaP, 120 h, B105 or C111 100.00 μM alone, 5 days, read-out: Vcap cell proliferation inhibition rate): 31.6%; inhibition at 300 µM (Homo sapiens, VCaP, 120 h, B105 or C111 300.00 μM alone, 5 days, read-out: Vcap cell proliferation inhibition rate): 33.9%; Survival rate of Vcap cells (tested compound 0.1 μM in combination with 1 μM Abiraterone acetate): 65.5%; Survival rate of Vcap cells (tested compound 0.1 μM in combination with 1 μM Galeterone): 46.6%; Survival rate of Vcap cells (tested compound 0.1 μM in combination with 1 μM ODM-201): 45.9%; Survival rate of Vcap cells (tested compound 1 μM in combination with 1 μM Abiraterone acetate): 68.5%; Survival rate of Vcap cells (tested compound 1 μM in combination with 1 μM Galeterone): 47.0%; Survival rate of Vcap cells (tested compound 1 μM in combination with 1 μM ODM-201): 43.1%; Survival rate of Vcap cells (tested compound 10 μM in combination with 1 μM Abiraterone acetate): 66.1%; Survival rate of Vcap cells (tested compound 10 μM in combination with 1 μM Galeterone): 47.8%; Survival rate of Vcap cells (tested compound 10 μM in combination with 1 μM ODM-201): 37.2%
